From article PMC6310865 (Proceedings of the National Academy of Sciences of the …, 2018)
Like-named read-outs stand apart in the source and are kept apart here. Ends that are not written are not given here.

How the values were obtained:
[1] = tested on: CD4+ T cells; format: cell-based, human
[2] = molecular target: DQ0602 (HLA DQB1*06:02/DQA1*01:02 heterodimer) (Homo sapiens, UniProt P01909+P01920, A157G/A45G/C70R/E118A/E183D/E77G/F83G/G63E/H151Q/H199R/H252R/H253Q/I129T/I235V/I88M/INS77G/K197Q/L117V/L119F/L178F/L71W/L74F/L85Q/L91A/L98M/N214S/P87R/Q116E/Q76K/R102G/R240Q/R75S/R78G/S102Y/S185I/S41F/S97I/T121G/T122I/T172A/T86R/V229M/V68A/V73E/Y34C/Y41F/Y58L); format: binding; conditions: in words; Dataset S1
[3] = 13 post-Pandemrix cases versus 10 post-Pandemrix controls

Substance | Tetramer reactivity (frequency of specific CD4+ T cells) in primary screening [1] | Tetramer-positive CD4+ T cells in T1N cases versus DQ0602 controls [1, 3] | Tetramer-positive CD4+ T cells in T1N cases versus DQ0602 controls ([1]; all cases versus controls, […]) | DQ0602 binding affinity of amidated versus nonamidated HCRT peptide [2] | Tetramer-positive CD4+ T cells in T1N cases versus DQ0602 controls ([1]; 7 recent onset cases versus 21 controls)
NP261–275: nucleoprotein epitope shared between A/California/07/2009 and PR8 (RSALILRGSVAHKSC; UniProt P03466 261-275, looked up, fragment) | highest frequencies |  |  |  | 
NP17–31: nucleoprotein epitope, PR8 specific (GERQNATEIRASVGK) | highest frequencies |  |  |  | 
HCRT86–97-NH2: C-terminal amidated HCRT86–97, as in secreted, mature hypocretin-2 (ASGNHAAGILTM-NH2; UniProt O43612 86-97, looked up, fragment) |  | significantly higher reactivity | marginally higher values | higher affinity | 
HCRT54–66-NH2: C-terminal amidated HCRT54–66, as in secreted, mature hypocretin-1 (HGAGNHAAGILTL-NH2) |  | marginally higher values | significantly higher percentage | higher affinity | higher reactivity
